From ChEMBL document CHEMBL3885861, “Open TG-GATES”

Species on record: Rattus norvegicus
Assay: Open TG-GATES - Regimen: Single
Format: toxicity, organism-based, Sprague-Dawley
Set-up: regimen Single, gender Male, age 6 weeks
Settings: in vivo, po, 2000 mg/kg, route gavage, dose level High; for APTT / Bas / Eos / Fbg / Hb / Ht / Lym / MCH / MCHC / MCV / Mono / Neu / PT / Plat / RBC / Ret / WBC: tissue Blood; for KIDNEY_L / KIDNEY_R / KIDNEY_TOTAL: tissue Kidney; for LIVER: tissue Liver; for A/G / ALP / ALT / AST / BUN / CRE / Ca / Cl / DBIL / GLC / IP / K / LDH / Na / PL / RALB / TBIL / TC / TG / TP / gamma-GTP: tissue Plasma

SMILES: CCOc1ccc(NC(=O)CC(C)O)cc1 (configuration not stated) [BUCETIN]
- TERMINAL_BW (3 h): 211.9 g
- APTT (3 h): 16.2 s
- Bas (3 h): 0%
- Eos (3 h): 1%
- Fbg (3 h): 308.4 mg/dL
- Hb (3 h): 13.1 g/dL
- Ht (3 h): 38.8%
- Lym (3 h): 74.8%
- MCH (3 h): 20.8 pg
- MCHC (3 h): 33.8%
- MCV (3 h): 61.7 fL
- Mono (3 h): 2.8%
- Neu (3 h): 21%
- PT (3 h): 13.7 s
- Plat (3 h): 123.8 x10_4/uL
- RBC (3 h): 628.8 x10_4/ul
- Ret (3 h): 8.2%
- WBC (3 h): 70.6 x10_2/uL
- KIDNEY_L (3 h): 0.9 g
- KIDNEY_R (3 h): 0.9 g
- KIDNEY_TOTAL (3 h): 1.9 g
- LIVER (3 h): 9.3 g
- A/G (3 h): 0.9
- ALP (3 h): 1367.8 IU/L
- ALT (3 h): 30.4 IU/L
- AST (3 h): 66 IU/L
- BUN (3 h): 9.2 mg/dL
- CRE (3 h): 0.1 mg/dL
- Ca (3 h): 10.8 mg/dL
- Cl (3 h): 103.8 meq/L
- DBIL (3 h): 0.032 mg/dL
- GLC (3 h): 198.4 mg/dL
- IP (3 h): 9.5 mg/dL
- K (3 h): 4.1 meq/L
- LDH (3 h): 67 IU/L
- Na (3 h): 141 meq/L
- PL (3 h): 148 mg/dL
- RALB (3 h): 2.5 g/dL
- TBIL (3 h): 0.054 mg/dL
- TC (3 h): 83.4 mg/dL
- TG (3 h): 52.2 mg/dL
- TP (3 h): 5.4 g/dL
- gamma-GTP (3 h): 1.2 IU/L
- TERMINAL_BW (6 h): 209.3 g
- APTT (6 h): 21.1 s
- Bas (6 h): 0.2%
- Eos (6 h): 0.4%
- Fbg (6 h): 315.2 mg/dL
- Hb (6 h): 13.7 g/dL
- Ht (6 h): 40.6%
- Lym (6 h): 79%
- MCH (6 h): 20.7 pg
- MCHC (6 h): 33.7%
- MCV (6 h): 61.2 fL
- Mono (6 h): 2.2%
- Neu (6 h): 17.8%
- PT (6 h): 13.5 s
- Plat (6 h): 124.4 x10_4/uL
- RBC (6 h): 662.8 x10_4/ul
- Ret (6 h): 8.2%
- WBC (6 h): 64.5 x10_2/uL
- KIDNEY_L (6 h): 0.9 g
- KIDNEY_R (6 h): 0.9 g
- KIDNEY_TOTAL (6 h): 1.9 g
- LIVER (6 h): 8.5 g
- A/G (6 h): 0.9
- ALP (6 h): 1336.4 IU/L
- ALT (6 h): 36.2 IU/L
- AST (6 h): 68.6 IU/L
- BUN (6 h): 8.4 mg/dL
- CRE (6 h): 0.1 mg/dL
- Ca (6 h): 10.6 mg/dL
- Cl (6 h): 102.2 meq/L
- DBIL (6 h): 0.032 mg/dL
- GLC (6 h): 201.8 mg/dL
- IP (6 h): 10.1 mg/dL
- K (6 h): 3.7 meq/L
- LDH (6 h): 79.4 IU/L
- Na (6 h): 141.2 meq/L
- PL (6 h): 147.4 mg/dL
- RALB (6 h): 2.6 g/dL
- TBIL (6 h): 0.048 mg/dL
- TC (6 h): 85.2 mg/dL
- TG (6 h): 27.6 mg/dL
- TP (6 h): 5.5 g/dL
- gamma-GTP (6 h): 1.4 IU/L
- TERMINAL_BW (9 h): 208.4 g
- APTT (9 h): 18.5 s
- Bas (9 h): 0%
- Eos (9 h): 0.8%
- Fbg (9 h): 314.8 mg/dL
- Hb (9 h): 13.3 g/dL
- Ht (9 h): 39%
- Lym (9 h): 80.6%
- MCH (9 h): 20.8 pg
- MCHC (9 h): 34%
- MCV (9 h): 61.1 fL
- Mono (9 h): 2.2%
- Neu (9 h): 16.2%
- PT (9 h): 14.1 s
- Plat (9 h): 119.7 x10_4/uL
- RBC (9 h): 639.8 x10_4/ul
- Ret (9 h): 8.3%
- WBC (9 h): 54.6 x10_2/uL
- KIDNEY_L (9 h): 0.9 g
- KIDNEY_R (9 h): 0.9 g
- KIDNEY_TOTAL (9 h): 1.9 g
- LIVER (9 h): 8.2 g
- A/G (9 h): 0.9
- ALP (9 h): 1215 IU/L
- ALT (9 h): 28.8 IU/L
- AST (9 h): 62.8 IU/L
- BUN (9 h): 8.2 mg/dL
- CRE (9 h): 0.1 mg/dL
- Ca (9 h): 10.5 mg/dL
- Cl (9 h): 103.4 meq/L
- DBIL (9 h): 0.042 mg/dL
- GLC (9 h): 199.2 mg/dL
- IP (9 h): 9.8 mg/dL
- K (9 h): 4.1 meq/L
- LDH (9 h): 64.2 IU/L
- Na (9 h): 140.6 meq/L
- PL (9 h): 150.6 mg/dL
- RALB (9 h): 2.6 g/dL
- TBIL (9 h): 0.052 mg/dL
- TC (9 h): 82.6 mg/dL
- TG (9 h): 43.6 mg/dL
- TP (9 h): 5.5 g/dL
- gamma-GTP (9 h): 1 IU/L
- TERMINAL_BW (24 h): 202.1 g
- APTT (24 h): 17.9 s
- Bas (24 h): 0.4%
- Eos (24 h): 0.8%
- Fbg (24 h): 294.2 mg/dL
- Hb (24 h): 14 g/dL
- Ht (24 h): 41.4%
- Lym (24 h): 79.2%
- MCH (24 h): 20.9 pg
- MCHC (24 h): 33.8%
- MCV (24 h): 61.7 fL
- Mono (24 h): 3%
- Neu (24 h): 16%
- PT (24 h): 14.4 s
- Plat (24 h): 128.9 x10_4/uL
- RBC (24 h): 670 x10_4/ul
- Ret (24 h): 7.1%
- WBC (24 h): 75.9 x10_2/uL
- KIDNEY_L (24 h): 1 g
- KIDNEY_R (24 h): 0.9 g
- KIDNEY_TOTAL (24 h): 1.9 g
- LIVER (24 h): 8.4 g
- A/G (24 h): 0.9
- ALP (24 h): 1381.2 IU/L
- ALT (24 h): 46.2 IU/L
- AST (24 h): 96.4 IU/L
- BUN (24 h): 11.8 mg/dL
- CRE (24 h): 0.2 mg/dL
- Ca (24 h): 10.9 mg/dL
- Cl (24 h): 104.8 meq/L
- DBIL (24 h): 0.078 mg/dL
- GLC (24 h): 175.2 mg/dL
- IP (24 h): 9.7 mg/dL
- K (24 h): 4.1 meq/L
- LDH (24 h): 102.4 IU/L
- Na (24 h): 142.4 meq/L
- PL (24 h): 166.6 mg/dL
- RALB (24 h): 2.7 g/dL
- TBIL (24 h): 0.078 mg/dL
- TC (24 h): 97.6 mg/dL
- TG (24 h): 57 mg/dL
- TP (24 h): 5.8 g/dL
- gamma-GTP (24 h): 1 IU/L
